Source: ChEMBL document CHEMBL1201862, “PubChem BioAssay data set” (2004)
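Dose response: 5 concentrations. Exposure: 48 h. Format: 96-well plates. Endpoint: linear interpolation; highest concentration if not reached. Abbreviation: GI50, concentration required for 50% inhibition of growth.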 Calls of active or inactive are those of the source. Rule as the data show it: active = GI50 up to about 1.1 µM and inactive = higher.

Key:
Assay in all cases: NCI-60 cell line screen, 48 h
786-0 = tested on: 786-0
COLO 205 = tested on: COLO 205
DU-145 = tested on: DU-145
HCC 2998 = tested on: HCC 2998
HL-60 = tested on: HL-60
LOX IMVI = tested on: LOX IMVI
MDA-MB-435 = tested on: MDA-MB-435
NCI-H23 = tested on: NCI-H23
NCI-H522 = tested on: NCI-H522
OVCAR-8 = tested on: OVCAR-8
SF-268 = tested on: SF-268
SK-MEL-2 = tested on: SK-MEL-2
SK-MEL-5 = tested on: SK-MEL-5
SK-OV-3 = tested on: SK-OV-3
SN12C = tested on: SN12C
SNB-19 = tested on: SNB-19
UACC-257 = tested on: UACC-257
RPMI-8226 = tested on: RPMI-8226
U-251 = tested on: U-251
SNB-75 = tested on: SNB-75

SMILES	GI50 (786-0)	GI50 (COLO 205)	GI50 (DU-145)	GI50 (HCC 2998)	GI50 (HL-60)	GI50 (LOX IMVI)	GI50 (MDA-MB-435)	GI50 (NCI-H23)	GI50 (NCI-H522)	GI50 (OVCAR-8)	GI50 (SF-268)	GI50 (SK-MEL-2)	GI50 (SK-MEL-5)	GI50 (SK-OV-3)	GI50 (SN12C)	GI50 (SNB-19)	GI50 (UACC-257)	GI50 (RPMI-8226)	GI50 (U-251)	GI50 (SNB-75)
COCCCNc1c2ccccc2nc2ccccc12	3.57 µM (inactive)	2.11 µM (inactive)	2.52 µM (inactive)	1.56 µM (inactive)	3.87 µM (inactive)	2.22 µM (inactive)	3.85 µM (inactive)	2.92 µM (inactive)	1.64 µM (inactive)	2.68 µM (inactive)	3.75 µM (inactive)	2.17 µM (inactive)	2.14 µM (inactive)	2.78 µM (inactive)	3.24 µM (inactive)	3.09 µM (inactive)	2.42 µM (inactive)	–	–	–
Cc1cccc(C)c1NC(=S)N/C=C(\C#N)C(N)=O	> 100 µM (inactive)	> 100 µM (inactive)	> 100 µM (inactive)	–	–	> 100 µM (inactive)	> 100 µM (inactive)	> 100 µM (inactive)	> 100 µM (inactive)	> 100 µM (inactive)	> 100 µM (inactive)	> 100 µM (inactive)	> 100 µM (inactive)	> 100 µM (inactive)	> 100 µM (inactive)	> 100 µM (inactive)	> 100 µM (inactive)	> 100 µM (inactive)	> 100 µM (inactive)	–
CC(C)(Br)C(Br)CCC(C)(Br)C(Br)CO (stereo not drawn)	> 10 µM (inactive)	> 10 µM (inactive)	> 10 µM (inactive)	> 10 µM (inactive)	–	–	> 10 µM (inactive)	> 10 µM (inactive)	> 10 µM (inactive)	> 10 µM (inactive)	> 10 µM (inactive)	–	> 10 µM (inactive)	> 10 µM (inactive)	> 10 µM (inactive)	> 10 µM (inactive)	> 10 µM (inactive)	> 10 µM (inactive)	> 10 µM (inactive)	> 10 µM (inactive)
O=C(N/N=C\C(F)(F)F)c1ccncc1	–	6.14 µM (inactive)	8.57 µM (inactive)	18.5 µM (inactive)	> 100 µM (inactive)	> 100 µM (inactive)	9.59 µM (inactive)	8.36 µM (inactive)	–	48.2 µM (inactive)	–	> 100 µM (inactive)	20.5 µM (inactive)	31.6 µM (inactive)	92.3 µM (inactive)	71.9 µM (inactive)	49.3 µM (inactive)	> 100 µM (inactive)	26.9 µM (inactive)	32.2 µM (inactive)
CCOC(=O)C1=CN/C(=C(/C)C(=O)OC)SC1C(=O)OCC (stereo not drawn)	> 100 µM (inactive)	> 100 µM (inactive)	> 100 µM (inactive)	> 100 µM (inactive)	–	> 100 µM (inactive)	> 100 µM (inactive)	> 100 µM (inactive)	> 76.7 µM (inactive)	> 100 µM (inactive)	> 100 µM (inactive)	> 100 µM (inactive)	58.3 µM (inactive)	> 100 µM (inactive)	> 100 µM (inactive)	98.2 µM (inactive)	> 100 µM (inactive)	68.9 µM (inactive)	> 100 µM (inactive)	> 100 µM (inactive)
CC(C)(C)[Si](C)(C)OCCOCn1cc(F)c(=O)[nH]c1=O	> 100 µM (inactive)	> 100 µM (inactive)	36.5 µM (inactive)	–	> 100 µM (inactive)	> 100 µM (inactive)	> 100 µM (inactive)	> 100 µM (inactive)	> 100 µM (inactive)	> 100 µM (inactive)	> 100 µM (inactive)	> 100 µM (inactive)	> 100 µM (inactive)	> 100 µM (inactive)	> 100 µM (inactive)	> 100 µM (inactive)	> 100 µM (inactive)	> 100 µM (inactive)	> 100 µM (inactive)	> 100 µM (inactive)
O=C1OI(C#Cc2ccccc2)c2ccccc21	3.11 µM (inactive)	3.37 µM (inactive)	7.18 µM (inactive)	6.58 µM (inactive)	1.12 µM (active)	2.74 µM (inactive)	3.72 µM (inactive)	2.38 µM (inactive)	–	4.39 µM (inactive)	2.84 µM (inactive)	11.7 µM (inactive)	2.19 µM (inactive)	12.2 µM (inactive)	4.16 µM (inactive)	7.29 µM (inactive)	5.2 µM (inactive)	1.57 µM (inactive)	2.62 µM (inactive)	3.89 µM (inactive)
N/N=C1/C2CN3CCN(C2)CC1(c1ccc([N+](=O)[O-])cc1)C3	> 100 µM (inactive)	> 100 µM (inactive)	> 100 µM (inactive)	–	> 100 µM (inactive)	> 100 µM (inactive)	> 100 µM (inactive)	> 100 µM (inactive)	> 100 µM (inactive)	> 100 µM (inactive)	> 100 µM (inactive)	> 100 µM (inactive)	> 100 µM (inactive)	–	> 100 µM (inactive)	> 100 µM (inactive)	> 100 µM (inactive)	> 100 µM (inactive)	> 100 µM (inactive)	> 100 µM (inactive)
